Results reported in patent US12076307B2, “Compositions for prevention or treatment of acute radiation syndrome and other radiation exposure” (priority 2017, dated 2024).
Values joined by “and” are separate entries in the source; they are usually repeats but may differ in a detail not shown here. Identical values can stand only once.

Assays:
[1] = In vitro plasma stability, human plasma; type: in vitro ADME; settings: Humans; 1 μM; 37° C.; n=3
Method: (§1) To assess the stability of EC-18 in plasma, the test material, or the standard reference material (test concentration 1 μM) was mixed with rat and human plasma and allowed to react for 1 hr at 37° C. Then, the residual EC-18 concentration was measured by LC-MS/MS. As standard reference materials, albendazole (a drug with high plasma stability) and vinpocetine (a drug with low plasma stability) were tested in parallel. When allowed to react with rat and human plasma for 1 hr, the residual EC-18 concentration in both rat and human plasma was >99% of the initial dose.

[2] = In vitro plasma stability, rat plasma; type: in vitro ADME; settings: Rats; 1 μM; 37° C.; n=3
Method: as §1

CXCL8 = CXCL8 release in HaCaT cells treated with CM or rhHMGB1; type: cell-based, human; settings: rhHMGB1-treated cells
Method: An additional experiment was tested for assessing whether EC-18 treatment leads to early termination of the RIPK1/3-MLKL-mediated downstream necroptosis pathway. This was performed by using DAMP-containing conditioned media (CM) harvested from HaCaT cells, irradiated for 48 hrs, and analyzed after 2 or 72 hrs of EC-18 treatment. […] To further confirm that DAMPs in CM contribute to the activation of a necroptosis signaling pathway in a paracrine manner, recombinant human HMGB1 (rhHMGB1) was treated directly to the normal HaCaT cells. The rhHMGB1 elevated the phosphorylation of RIPK1/3 and MLKL after 2 hrs and subsequently released HMGB1 and HSP90 (FIGS. 35C-35D). To evaluate whether EC-18 mitigates the activation of RIPK1/3 and MLKL, 10 or 100 μg/mL of EC-18 was treated before the addition of CM or rhHMGB1. As a result, EC-18 lowered the phosphorylation of RIPK/3 and MLKL in both CM- and rhHMGB1-treated cells after 2 hrs. Release of HMGB1 and Hsp90 was also subsided by EC-18 after 72 hrs of post addition of CM or rhHMGB1 to the cells (FIGS. 35A-35D). TLR4-induced necroptosis signaling pathway caused by DAMP release produces cytokines, such as CXCL8, a chemotactic cytokine for neutrophils. As CXCL8 increases upon tissue damage, it was measured in cells treated with CM or rhHMGB1 as a measure of inflammation. CXCL8 of CM from cells treated with chemo and radiotherapy was used for this evaluation. […] Moreover, rhHMGB1 increased the production of CXCL8, modulated by EC-18.

[3] = Whole-body autoradiography of rats after single oral [14C]EC-18; type: in vivo, rat; settings: 200 mg/kg oral, fasted
Method: Male albino rats in fasted conditions were administered a single dose of [^14C]EC-18 (oral dose of 200 mg/kg, vehicle: olive oil). The distribution and levels of radioactivity in the body were observed by whole-body autoradiography performed at 0.25, 1, 8, and 24 hrs after [^14C]EC-18 administration.

[4] = Whole blood and lymphatic radioactivity in rats after single oral [14C]EC-18 100 mg/kg; type: in vivo, rat; settings: 100 mg/kg oral, n=3; for Tmax: 100 mg/kg
Method: Male SD rats in fasted condition were administered a single dose of [^14C]EC-18 (oral dose of 100 mg/kg; vehicle: olive oil), and the radioactive concentration of the EC-18 was measured in whole blood samples at 0.5, 1, 2, 3, 4, 6, and 8 hrs after its administration. In parallel, male rats with a cannula inserted into the intestinal tract were administered a single dose of [^14C]EC-18 (oral dose of 100 mg/kg; vehicle: olive oil) and the concentration of EC-18-related radioactivity was measured in lymphatic fluid collected in conscious rats at 0.5, 1, 2, 3, 4, 6, and 8 hrs after its administration (FIG. 60). Then, the values of PK parameters were calculated using the quantitative data from whole blood and lymphatic fluid samples (Table 20). Following a single oral administration of [14C]EC-18, EC-18 concentration in the lymphatic fluid of rats was 10 to 53 times higher than that in whole blood (FIG. 60).

[5] = Plasma and lymphatic radioactivity after single oral [14C]EC-18 50 mg/kg in cannulated rats; type: in vivo, rat; settings: 50 mg/kg oral; for Radioactive Concentration in Plasma: n=3
Method: After inserting a cannula into the intestinal tract of male SD rats, the rats in fed condition were given a single dose of [^14C]EC-18 (oral dose of 50 mg/kg; vehicle: olive oil), and samples were collected after 0.5, 1, 2, 4, 6, and 8 hrs of administration. In parallel, lymphatic fluid samples were collected from conscious rats up to 8 hrs after administration. The radioactive concentrations in rat plasma and lymphatic fluid were measured by LSC after adding a scintillator, and the quantified data are shown in Table 19.

[6] = Plasma radioactivity in rats after single oral or IV [14C]EC-18; type: in vivo, rat
Method: Male SD rats in the fed state were administered a single oral dose of 25, 50, or 100 mg/kg (vehicle: olive oil) or a single IV injection of 10 mg/kg of [^14C]EC-18 (EC-18 with radioactive isotope ^14C attached). Subsequently, the PK parameters were assessed. The concentration of radioactivity in rat plasma was measured by liquid scintillation counting (LSC) method after adding a scintillator (Clear-Sol I, Nacalai Tesque, Inc).

[7] = Pathway of excretion in rats after single oral [14C]EC-18; type: in vivo, rat; settings: 50 mg/kg oral
Method: To assess the routes of EC-18 excretion, male rats were administered a single dose of [^14C]EC-18 (oral dose of 50 mg/kg), after which, radioactive concentrations were measured in urine, feces, and exhaled air in the chamber of the animals for 168 hrs, and in the body after the autopsy.

[8] = Oral 25 mg/kg, plasma, fed, n=3
[9] = Oral 50 mg/kg, plasma, fed, n=3
[10] = Oral 100 mg/kg, plasma, fed, n=3

Structure (SMILES): CCCSc1ccc2nc(NC(=O)OC)[nH]c2c1 [Albendazol, albendazole, reference compound]
- Residual Concentration Relative to the Initial Dose After Reaction for 1 hr in Plasma [1]: >99%
- Residual Concentration Relative to the Initial Dose After Reaction for 1 hr in Plasma [2]: >99%

Structure (SMILES): CC(C)S(=O)(=O)c1ccc2nccc(Nc3ccc4scnc4c3)c2c1 [GSK872, reference compound]
- CXCL8 production (CXCL8): significant reduction

Structure (SMILES): CN1C(=O)C(Cc2c[nH]c3ccccc23)NC1=S (stereo not drawn) [Necrostin-1, reference compound]
- CXCL8 production (CXCL8): significant reduction

Structure (SMILES): CCOC(=O)C1=C[C@]2(CC)CCCN3CCc4c(n1c1ccccc41)[C@@H]32 [Vinpocetin, vinpocetine, reference compound]
- Residual Concentration Relative to the Initial Dose After Reaction for 1 hr in Plasma [1]: 85.3 ± 3.8%
- Residual Concentration Relative to the Initial Dose After Reaction for 1 hr in Plasma [2]: 52.4 ± 7.2%

Structure (SMILES): CCCCC/C=C\C/C=C\CCCCCCCC(=O)OC(COC(C)=O)COC(=O)CCCCCCCCCCCCCCC (stereo not drawn) [[^14C]EC-18]
- site of highest radioactivity ([3]; 0.25 hr): stomach and small intestine
- site of highest radioactivity ([3]; 1 hr): stomach and small intestine
- site of highest radioactivity ([3]; 8 hrs): inner walls of the stomach
- radioactivity distribution ([3]; 24 hrs): low radioactivity was observed in the liver
- AUC0-inf ([4]; Lymphatic Fluid): 53900 ± 39100 μg eq · hr/mL
- AUC0-last ([4]; Lymphatic Fluid): 20400 ± 600 μg eq · hr/mL
- Cmax ([4]; Lymphatic Fluid): 1210 ± 200 µg/mL
- t1/2 ([4]; Lymphatic Fluid): 29.7 ± 28.1 h
- Tmax ([4]; Lymphatic Fluid): 7.0 ± 2.0 h
- AUC0-inf ([4]; Whole Blood, fasted): 819 ± 130 μg eq · hr/mL
- AUC0-last ([4]; Whole Blood, fasted): 496 ± 69 μg eq · hr/mL
- Cmax ([4]; Whole Blood, fasted): 38.8 ± 9.5 µg/mL
- t1/2 ([4]; Whole Blood, fasted): 16.8 ± 1.9 h
- Tmax ([4]; Whole Blood, fasted): 3.8 ± 2.9 h
- Radioactive Concentration in Plasma ([5]; 0.5 hr): 0.096 ± 0.096 μg eq/mL
- Radioactive Concentration in Plasma ([5]; 1 hr): 0.689 ± 0.796 μg eq/mL
- Radioactive Concentration in Plasma ([5]; 2 hr): 2.09 ± 1.65 μg eq/mL
- Radioactive Concentration in Plasma ([5]; 4 hr): 6.51 ± 2.21 μg eq/mL
- Radioactive Concentration in Plasma ([5]; 6 hr): 10.2 ± 2.7 μg eq/mL
- radioactive concentration in plasma as share of the administered dose ([5]; 8 h): approximately 28%
- Radioactive Concentration in Plasma ([5]; 8 hr, 50 mg/kg): 17.5 μg eq/mL and 17.5 ± 4.9 μg eq/mL
- AUClast ([6]; IV 10 mg/kg, plasma, fed, n=3): 215 ± 11 μg eq · hr/mL
- Cmax (= C0) ([6]; IV 10 mg/kg, plasma, fed, n=3): 81.5 ± 3.4 μg eq/mL
- t1/2 ([6]; IV 10 mg/kg, plasma, fed, n=3): 32.5 ± 1.2 h
- F ([6]; Oral 25 mg/kg): 46%
- AUClast [6, 8]: 224 ± 30 μg eq · hr/mL
- Cmax [6, 8]: 7.2 ± 1.4 μg eq/mL
- Tmax [6, 8]: 7.3 ± 5.0 h
- t1/2 [6, 8]: 32.0 ± 3.1 h
- F ([6]; Oral 50 mg/kg): 49%
- AUClast [6, 9]: 473 ± 53 μg eq · hr/mL
- Cmax [6, 9]: 16.6 ± 1.4 μg eq/mL
- Tmax [6, 9]: 4.7 ± 2.3 h
- t1/2 [6, 9]: 31.4 ± 1.8 h
- F ([6]; Oral 100 mg/kg): 42%
- AUClast [6, 10]: 830 ± 29 μg eq · hr/mL
- Cmax [6, 10]: 29.6 ± 2.7 μg eq/mL
- Tmax [6, 10]: 6.0 ± 3.5 h
- t1/2 [6, 10]: 31.7 ± 3.5 h
- Cumulative Radioactive Concentration Relative to the Administered Dose, Cage-Cleaning Water ([7]; 0-24 hr): 0.0 ± 0.0%
- Cumulative Radioactive Concentration Relative to the Administered Dose, Exhaled Air ([7]; 0-24 hr, 50 mg/kg): 71.0 ± 3.2%
- Cumulative Radioactive Concentration Relative to the Administered Dose, Feces ([7]; 0-24 hr, 50 mg/kg): 3.0 ± 0.5%
- Cumulative Radioactive Concentration Relative to the Administered Dose, Total ([7]; 0-24 hr, 50 mg/kg): 75.9 ± 3.2%
- Cumulative Radioactive Concentration Relative to the Administered Dose, Urine ([7]; 0-24 hr, 50 mg/kg): 1.9 ± 0.3%
- Cumulative Radioactive Concentration Relative to the Administered Dose, Cage-Cleaning Water ([7]; 0-48 hr): 0.1 ± 0.1%
- Cumulative Radioactive Concentration Relative to the Administered Dose, Exhaled Air ([7]; 0-48 hr): 75.0 ± 3.8%
- Cumulative Radioactive Concentration Relative to the Administered Dose, Feces ([7]; 0-48 hr): 3.6 ± 0.7%
- Cumulative Radioactive Concentration Relative to the Administered Dose, Total ([7]; 0-48 hr): 80.7 ± 3.8%
- Cumulative Radioactive Concentration Relative to the Administered Dose, Urine ([7]; 0-48 hr): 2.1 ± 0.3%
- Cumulative Radioactive Concentration Relative to the Administered Dose, Cage-Cleaning Water ([7]; 0-72 hr): 0.1 ± 0.0%
- Cumulative Radioactive Concentration Relative to the Administered Dose, Exhaled Air ([7]; 0-72 hr, 50 mg/kg): 76.7 ± 3.9%
- Cumulative Radioactive Concentration Relative to the Administered Dose, Feces ([7]; 0-72 hr, 50 mg/kg): 3.8 ± 0.7%
- Cumulative Radioactive Concentration Relative to the Administered Dose, Total ([7]; 0-72 hr, 50 mg/kg): 82.8 ± 3.9%
- Cumulative Radioactive Concentration Relative to the Administered Dose, Urine ([7]; 0-72 hr, 50 mg/kg): 2.2 ± 0.3%
- Cumulative Radioactive Concentration Relative to the Administered Dose, Cage-Cleaning Water ([7]; 0-96 hr): 0.1 ± 0.0%
- Cumulative Radioactive Concentration Relative to the Administered Dose, Exhaled Air ([7]; 0-96 hr): 77.7 ± 3.9%
- Cumulative Radioactive Concentration Relative to the Administered Dose, Feces ([7]; 0-96 hr): 3.9 ± 0.7%
- Cumulative Radioactive Concentration Relative to the Administered Dose, Total ([7]; 0-96 hr): 84.0 ± 3.8%
- Cumulative Radioactive Concentration Relative to the Administered Dose, Urine ([7]; 0-96 hr): 2.3 ± 0.4%
- Cumulative Radioactive Concentration Relative to the Administered Dose, Cage-Cleaning Water ([7]; 0-120 hr): 0.1 ± 0.0%
- Cumulative Radioactive Concentration Relative to the Administered Dose, Exhaled Air ([7]; 0-120 hr): 78.4 ± 3.9%
- Cumulative Radioactive Concentration Relative to the Administered Dose, Feces ([7]; 0-120 hr): 4.0 ± 0.7%
- Cumulative Radioactive Concentration Relative to the Administered Dose, Total ([7]; 0-120 hr): 84.8 ± 3.8%
- Cumulative Radioactive Concentration Relative to the Administered Dose, Urine ([7]; 0-120 hr): 2.3 ± 0.4%
- Cumulative Radioactive Concentration Relative to the Administered Dose, Cage-Cleaning Water ([7]; 0-144 hr): 0.1 ± 0.0%
- Cumulative Radioactive Concentration Relative to the Administered Dose, Exhaled Air ([7]; 0-144 hr): 78.9 ± 3.9%
- Cumulative Radioactive Concentration Relative to the Administered Dose, Feces ([7]; 0-144 hr): 4.1 ± 0.7%
- Cumulative Radioactive Concentration Relative to the Administered Dose, Total ([7]; 0-144 hr): 85.4 ± 3.8%
- Cumulative Radioactive Concentration Relative to the Administered Dose, Urine ([7]; 0-144 hr): 2.3 ± 0.4%
- Cumulative Radioactive Concentration Relative to the Administered Dose, Cage-Cleaning Water ([7]; 0-168 hr): 0.1 ± 0.0%
- Cumulative Radioactive Concentration Relative to the Administered Dose, Cadaver ([7]; 0-168 hr, 50 mg/kg): 9.8 ± 1.0%
- Cumulative Radioactive Concentration Relative to the Administered Dose, Exhaled Air ([7]; 0-168 hr, 50 mg/kg): 79.3 ± 3.9%
- Cumulative Radioactive Concentration Relative to the Administered Dose, Feces ([7]; 0-168 hr, 50 mg/kg): 4.2 ± 0.7%
- Cumulative Radioactive Concentration Relative to the Administered Dose, Total ([7]; 0-168 hr, 50 mg/kg): 95.7 ± 3.3%
- Cumulative Radioactive Concentration Relative to the Administered Dose, Urine ([7]; 0-168 hr, 50 mg/kg): 2.3 ± 0.4%
